Read-outs that look alike come from different tables or passages of the source.

Common to all, as to experiment: TGFα-shedding assay-based GPCR screening with chimeric Gα subunit proteins
Holding throughout (format): cell-based

The target of assay [1] is T1, 348 GPCRs (Homo sapiens, UniProt P48145).
T1 construct: expressed in transfected cells; host or cells: HEK293A
T1 sequence (P48145 1-328): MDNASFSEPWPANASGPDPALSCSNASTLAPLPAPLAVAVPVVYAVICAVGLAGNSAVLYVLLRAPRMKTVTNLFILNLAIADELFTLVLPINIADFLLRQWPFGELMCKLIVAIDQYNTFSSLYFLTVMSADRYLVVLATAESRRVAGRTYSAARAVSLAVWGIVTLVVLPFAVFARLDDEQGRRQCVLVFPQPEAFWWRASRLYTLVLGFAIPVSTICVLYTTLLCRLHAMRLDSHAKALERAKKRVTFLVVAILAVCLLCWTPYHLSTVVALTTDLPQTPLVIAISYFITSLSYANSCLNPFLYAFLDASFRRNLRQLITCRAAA
As to conditions: 10µM, Favipiravir 100μM.

For assay [2], the target named is T2, 348 GPCRs (Homo sapiens, UniProt O43613).
T2 construct: expressed in transfected cells; host or cells: HEK293A
T2 sequence (O43613 1-425): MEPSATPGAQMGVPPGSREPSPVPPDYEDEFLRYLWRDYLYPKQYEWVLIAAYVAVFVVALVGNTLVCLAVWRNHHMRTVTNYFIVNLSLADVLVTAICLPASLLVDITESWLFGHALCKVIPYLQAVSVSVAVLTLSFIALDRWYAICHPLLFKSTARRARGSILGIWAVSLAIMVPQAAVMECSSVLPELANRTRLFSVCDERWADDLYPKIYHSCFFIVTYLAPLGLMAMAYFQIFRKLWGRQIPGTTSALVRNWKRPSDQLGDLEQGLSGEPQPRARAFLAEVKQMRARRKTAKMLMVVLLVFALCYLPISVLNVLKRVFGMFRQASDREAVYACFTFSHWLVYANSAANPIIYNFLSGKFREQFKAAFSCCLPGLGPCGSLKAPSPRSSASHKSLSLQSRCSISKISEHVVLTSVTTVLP
The settings on record: 10µM, Favipiravir 100μM.

In assay [3] the target is T3, 348 GPCRs (Homo sapiens, UniProt Q13585).
T3 construct: expressed in transfected cells; host or cells: HEK293A
T3 sequence (Q13585 whole entry): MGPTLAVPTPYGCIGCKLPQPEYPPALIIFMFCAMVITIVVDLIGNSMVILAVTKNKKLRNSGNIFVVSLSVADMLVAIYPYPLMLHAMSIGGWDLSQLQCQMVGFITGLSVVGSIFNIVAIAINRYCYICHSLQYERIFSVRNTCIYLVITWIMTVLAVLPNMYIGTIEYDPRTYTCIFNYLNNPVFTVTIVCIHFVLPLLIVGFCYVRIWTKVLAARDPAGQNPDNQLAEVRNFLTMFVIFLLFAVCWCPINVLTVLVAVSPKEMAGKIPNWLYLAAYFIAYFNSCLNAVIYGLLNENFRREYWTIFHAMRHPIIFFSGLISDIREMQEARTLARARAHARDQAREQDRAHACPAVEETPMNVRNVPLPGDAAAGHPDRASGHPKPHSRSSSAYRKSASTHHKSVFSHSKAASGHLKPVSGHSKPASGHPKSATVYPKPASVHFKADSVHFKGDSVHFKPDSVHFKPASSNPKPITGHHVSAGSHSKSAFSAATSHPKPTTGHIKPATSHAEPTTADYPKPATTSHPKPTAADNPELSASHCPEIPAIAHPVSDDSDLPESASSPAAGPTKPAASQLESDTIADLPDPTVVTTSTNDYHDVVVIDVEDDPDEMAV

Assay [4] addresses T4, 348 GPCRs (Homo sapiens, UniProt P0DMS8).
T4 construct: expressed in transfected cells; host or cells: HEK293A
T4 sequence (P0DMS8 1-318): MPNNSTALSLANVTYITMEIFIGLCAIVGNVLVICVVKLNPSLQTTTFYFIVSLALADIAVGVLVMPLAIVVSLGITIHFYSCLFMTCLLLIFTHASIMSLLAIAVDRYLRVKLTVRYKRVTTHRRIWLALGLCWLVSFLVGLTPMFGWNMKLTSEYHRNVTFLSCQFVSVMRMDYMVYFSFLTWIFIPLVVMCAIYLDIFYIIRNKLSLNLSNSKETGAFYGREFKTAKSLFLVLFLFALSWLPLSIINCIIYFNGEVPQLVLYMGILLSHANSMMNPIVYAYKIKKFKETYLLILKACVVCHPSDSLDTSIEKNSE
As to conditions: 10µM, Favipiravir 100μM.

Assay [5] addresses T5, 348 GPCRs (Homo sapiens, UniProt Q03431).
T5 sequence (Q03431 27-593): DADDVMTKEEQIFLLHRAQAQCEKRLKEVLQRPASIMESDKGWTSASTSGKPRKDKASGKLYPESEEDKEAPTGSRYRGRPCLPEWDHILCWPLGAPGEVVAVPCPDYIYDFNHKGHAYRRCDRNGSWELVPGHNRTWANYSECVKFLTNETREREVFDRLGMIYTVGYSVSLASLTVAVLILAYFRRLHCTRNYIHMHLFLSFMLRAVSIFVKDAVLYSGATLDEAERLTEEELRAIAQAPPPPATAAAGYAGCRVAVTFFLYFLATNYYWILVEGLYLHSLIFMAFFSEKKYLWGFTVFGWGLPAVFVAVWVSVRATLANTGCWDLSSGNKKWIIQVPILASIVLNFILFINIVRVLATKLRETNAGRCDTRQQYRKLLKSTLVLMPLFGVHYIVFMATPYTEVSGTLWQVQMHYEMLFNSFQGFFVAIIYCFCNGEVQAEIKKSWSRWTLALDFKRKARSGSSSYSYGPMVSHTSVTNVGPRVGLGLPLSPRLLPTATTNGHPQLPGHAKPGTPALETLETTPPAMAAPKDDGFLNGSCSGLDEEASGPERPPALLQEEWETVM
As to conditions: 10µM, Favipiravir 100μM.

The target in assay [6] is T6, 348 GPCRs (Homo sapiens, UniProt Q8NFN8).
T6 construct: expressed in transfected cells; host or cells: HEK293A
T6 sequence (Q8NFN8 1-814): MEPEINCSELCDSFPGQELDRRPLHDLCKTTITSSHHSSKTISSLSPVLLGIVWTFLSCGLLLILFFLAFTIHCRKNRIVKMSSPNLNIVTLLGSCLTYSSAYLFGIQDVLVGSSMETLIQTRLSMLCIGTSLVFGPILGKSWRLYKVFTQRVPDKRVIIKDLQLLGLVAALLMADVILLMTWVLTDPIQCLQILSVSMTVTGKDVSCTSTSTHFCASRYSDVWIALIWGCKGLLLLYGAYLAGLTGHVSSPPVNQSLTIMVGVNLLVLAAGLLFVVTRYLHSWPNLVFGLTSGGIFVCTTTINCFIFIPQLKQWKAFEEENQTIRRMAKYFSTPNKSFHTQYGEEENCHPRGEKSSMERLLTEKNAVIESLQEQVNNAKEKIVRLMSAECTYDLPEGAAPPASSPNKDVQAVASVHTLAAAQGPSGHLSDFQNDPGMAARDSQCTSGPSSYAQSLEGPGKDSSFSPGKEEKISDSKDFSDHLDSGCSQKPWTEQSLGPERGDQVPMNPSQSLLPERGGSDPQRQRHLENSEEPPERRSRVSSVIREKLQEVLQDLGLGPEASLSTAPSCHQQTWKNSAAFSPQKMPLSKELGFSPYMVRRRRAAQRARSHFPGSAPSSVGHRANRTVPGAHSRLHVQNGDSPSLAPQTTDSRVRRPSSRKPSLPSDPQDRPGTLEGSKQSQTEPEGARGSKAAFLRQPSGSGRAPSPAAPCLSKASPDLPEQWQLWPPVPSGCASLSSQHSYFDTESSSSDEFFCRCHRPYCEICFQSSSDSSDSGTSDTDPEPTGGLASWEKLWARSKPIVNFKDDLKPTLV
As to conditions: 10µM, Favipiravir 100μM.

Where [7] appears, read: NPBWR1 (neuropeptides B and W receptor 1), read-out: % GPCR activation compared to TPA.
The mark [8] stands for this setting: HCRTR1 (hypocretin (orexin) receptor 1), read-out: % GPCR activation compared to TPA.
Setting [9] is: ADORA3 (adenosine A3 receptor), read-out: % GPCR activation compared to TPA.
Setting [10] is: PTH1R (parathyroid hormone 1 receptor), read-out: % GPCR activation compared to TPA.
Where [11] appears, read: GPR156 (G protein-coupled receptor 156), read-out: % GPCR activation compared to TPA.
The mark [12] stands for this setting: read-out: % GPCR activation compared to TPA, NPBWR1 (neuropeptides B and W receptor 1).
The mark [13] stands for this setting: read-out: % GPCR activation compared to TPA, HCRTR1 (hypocretin (orexin) receptor 1).
The mark [14] stands for this setting: read-out: % GPCR activation compared to TPA, GPCR GPR50 (G Protein-Coupled Receptor 50).
The mark [15] stands for this setting: read-out: % GPCR activation compared to TPA, ADORA3 (adenosine A3 receptor).
Setting [16] is: read-out: % GPCR activation compared to TPA, PTH1R (parathyroid hormone 1 receptor).
[17] abbreviates: read-out: % GPCR activation compared to TPA, GPR156 (G protein-coupled receptor 156).
The mark [18] stands for this setting: GPCR GPR50 (G Protein-Coupled Receptor 50), read-out: % GPCR activation compared to TPA.

Regarding `NC(=O)c1nc(F)cnc1O` [favipiravir, 6-fluoro-3-hydroxy-2-pyrazinecarboxamide], the activation at 10 µM is -3.5% at 348 GPCRs [1] (setting [7]), 2.09% on 348 GPCRs [4] (setting [9]) and 2.77% on 348 GPCRs [6] (setting [11]). For the same compound, the activation at 100 µM on 348 GPCRs [2] (setting [8]) was 12.9%; at 348 GPCRs [3] (GPCR GPR50 (G Protein-Coupled Receptor 50), 100μM, read-out: % GPCR activation compared to TPA), -0.692%; on 348 GPCRs [5] (setting [10]) it was -0.775%.

For `CC(C)OC(=O)[C@H](C)N[P@](=O)(OC[C@H]1O[C@@H](n2ccc(=O)[nH]c2=O)[C@](C)(F)[C@@H]1O)Oc1ccccc1` [sofosbuvir], the activation at 10 µM at 348 GPCRs [1] (setting [12]) was -6.08%; at 348 GPCRs [3] (setting [14]), -0.301%; on 348 GPCRs [4] (setting [15]) it was -1.59%; at 348 GPCRs [6] (setting [17]), -4.51%. The activation at 100 µM is -0.162% at 348 GPCRs [2] (setting [13]) and 1.23% at 348 GPCRs [5] (setting [16]).

For the compound `CCC(CC)COC(=O)[C@H](C)N[P@](=O)(OC[C@H]1O[C@@](C#N)(c2ccc3c(N)ncnn23)[C@H](O)[C@@H]1O)Oc1ccccc1` [remdesivir], the activation at 10 µM at 348 GPCRs [1] (setting [12]) was -1.26%; on 348 GPCRs [3] (setting [14]), -1.37%; at 348 GPCRs [4] (setting [15]), 5.91%; on 348 GPCRs [6] (setting [17]), 4.05%. In addition, the activation at 100 µM was 16.7% on 348 GPCRs [2] (setting [13]) and 0.414% on 348 GPCRs [5] (setting [16]).

For the compound `N#C[C@@]1(c2ccc3c(N)ncnn23)O[C@H](CO)[C@@H](O)[C@H]1O` [GS441524], the activation at 10 µM is -1.75% on 348 GPCRs [1] (setting [7]), -1.05% on 348 GPCRs [3] (setting [18]), 2.73% on 348 GPCRs [4] (setting [9]) and 1.38% on 348 GPCRs [6] (setting [11]). For the same compound, the activation at 100 µM is 16.9% at 348 GPCRs [2] (setting [8]) and -0.479% on 348 GPCRs [5] (setting [10]).

For the compound `CC(C)C(=O)OC[C@H]1O[C@@H](n2ccc(NO)nc2=O)[C@H](O)[C@@H]1O` [molnupiravir], the activation at 10 µM on 348 GPCRs [1] (setting [7]) was -7.02%; on 348 GPCRs [3] (setting [18]) it was -1.45%; on 348 GPCRs [4] (setting [9]), -0.751%; on 348 GPCRs [6] (setting [11]), -4.86%. Further, the activation at 100 µM at 348 GPCRs [2] (setting [8]) is 1.7%; on 348 GPCRs [5] (setting [10]), -0.633%.
